Where two headings read alike, the source gives them in different places.
Tests used:
[1] = test system: S. coelicolor M145 ΔvanX (LAG3); test: MIC of vancomycin on MM agar plates with added D-Ala; format: cell-based, Streptomyces coelicolor; settings: Streptomyces coelicolor
Source text: (§1) VanX effectively eradicates the D-Ala-D-Ala dipeptide, thereby counteracting the accumulation of wild-type precursors and supporting vancomycin resistance (Lessard and Walsh, 1999; Tan et al., 2002). Therefore, a vanX null mutant was created using a similar strategy as for ddl, replacing the coding region of vanX by the apramycin resistance cassette aacC4. The mutant was created in both the parental strain S. coelicolor M145 and in its ddl suppressor mutant LAG2, generating LAG3 (M145 ΔvanX) and LAG4 (M145 Δddl ΔvanX vanS::IS466A), respectively.
(§2) LAG4 produced 20% wt precursors prior to the addition of D-Ala.
(§3) Escherichia coli strains JM109 (Sambrook et al., 1989) and ET12567 (Kieser et al., 2000) were used for routine cloning procedures and for extracting non-methylated DNA, respectively. Cells of E. coli were grown in Luria-Berani broth (LB) at 37° C. Streptomyces coelicolor A3(2) M145 was the parent of all mutants described in this work. All media and routine Streptomyces techniques were carried out as described (Kieser et al., 2000). SFM (soy flour mannitol) agar plates were used for propagating S. coelicolor strains and to prepare spore suspensions. For liquid-grown cultures, S. coelicolor mycelia were grown in normal minimal media with phosphate (NMMP) supplemented with 1% (w/v) mannitol as the sole carbon source. The MIC of vancomycin against S. coelicolor M145 and its mutant derivatives were determined by growth on minimal media (MM) agar plates supplemented with 1% mannitol as the sole carbon source, and 0, 2, 4, 8, 16, 32, 64, 128, 256 or 512 μg/ml vancomycin, in combination with 0, 1, 5, 10 or 50 mM of D-Ala or L-Ala. The vanX deletion mutants have been tested with 1, 5, 10, 50 and 100 μM D-Ala and L-Ala.

[2] = test system: S. coelicolor LAG2 ΔvanX (LAG4); test: as above; format: cell-based; settings: Streptomyces coelicolor
Source text: as §1, §2, §3

[3] = test system: S. coelicolor LAG1 (ddl null mutant); test: LC-MS analysis of peptidoglycan precursors; format: cell-based, Streptomyces coelicolor; settings: LAG1 grown in the presence of vancomycin
Description: (§4) In order to get more insights into the synthesis of vancomycin-sensitive (i.e., wild-type) or the alternate vancomycin-resistant peptidoglycan, the pool of peptidoglycan precursors was analyzed by Liquid Chromatography coupled to Mass Spectrometry (LC-MS). When cells produce wild-type PG, only the MurNac-pentapeptide with a D-Ala-D-Ala terminus are detected, while vancomycin-resistant PG precursors have a D-Ala-D-Lac terminus. To analyze the precursors produced in S. coelicolor M145 and its mutant derivatives LAG1 (Δddl) and LAG2 (Δddl vanS::IS466A) in the presence or absence of vancomycin, the strains were grown until exponential phase, after which the cultures were harvested, washed and the precursors extracted with 5% TCA. The supernatants were desalted, concentrated and analyzed by LC-MS (see Materials and Methods section).
(§5) For the precursor isolation and identification, a modification of the method described previously by Hong and colleagues (Hong et al., 2004) was used. 10 μg vancomycin was added to the strains at the moment of inoculation. The strains were grown in NMMP (1% (w/v) Mannitol, 50 mM MgCl2) until mid-log phase (OD-0.3-0.4) and mycelia were harvested by centrifugation at 4° C. and washed in 0.9% NaCl. […] The elution was monitored at 254 nm and monitored by the sizes eluted (1193.8-1195.3).

S. coelicolor M145 = test: LC-MS analysis of peptidoglycan precursors; format: cell-based, Streptomyces coelicolor; settings: M145 grown with 10 μg/ml vancomycin
Description: as §4, §5

S. coelicolor LAG2 = test: LC-MS analysis of peptidoglycan precursors, including time course after alanine addition; format: cell-based, Streptomyces coelicolor
Description: as §4
To investigate what the effect would be of the addition of excess of D-Ala on the accumulation of wild-type precursors, a time-course experiment was performed to follow the effect of D-Ala addition on the ratio between wild-type and resistant precursors. Therefore, 300 ml liquid-grown NMMP cultures were supplemented with either D-Ala or L-Ala (control) at 50 mM end concentration, and 10 ml samples were collected prior to and 1, 5, 15, 30, 60, 120 and 180 minutes after the addition of either alanine stereoisomer. Samples were immediately filtered by vacuum filtration, washed in 0.9% NaCl, biomass scraped off the filter, added to a tube containing 5% TCA and samples prepared as described above. […] However, addition of 50 mM D-Ala triggered the production of small amounts of wt precursor (1%) within 1 minute. After 15 minutes, this amount had increased to 4%, which appeared to be close to the maximum, with levels of wt precursors never exceeding 5%.
For the precursor isolation and identification, a modification of the method described previously by Hong and colleagues (Hong et al., 2004) was used. 10 μg vancomycin was added to the strains at the moment of inoculation. The strains were grown in NMMP (1% (w/v) Mannitol, 50 mM MgCl2) until mid-log phase (OD-0.3-0.4) and mycelia were harvested by centrifugation at 4° C. and washed in 0.9% NaCl. The mycelium was extracted with 5% cold trichloric acid (TCA) for 30 minutes at 4° C. This was centrifuged and the supernatant desalted on a Sephadex G-25 column (Illustra NAP-10 Columns, GE Healthcare, Pittsburgh), and concentrated by rotary evaporation. The concentrated precursors were dissolved in HPLC-grade water and separated by LC-MS using a gradient of 0-20% acetonitrile in water with 0.1% TFA. The elution was monitored at 254 nm and monitored by the sizes eluted (1193.8-1195.3).
For the measurement over time, the protocol was adjusted in the following way: 300 ml NMMP cultures were grown until exponential phase, at which point a 10 ml sample was taken (sample t=0) and 50 mM of D-Ala or L-Ala was added, followed by further sampling after 1, 5, 15, 30, 60, 120 and 180 minutes. Samples were rapidly filtered with a vacuum pump and washed with 0.9% (w/v) NaCl, mycelia scraped off the filter and transferred to 5% TCA.

CN[C@H](CC(C)C)C(=O)N[C@H]1C(=O)N[C@@H](CC(N)=O)C(=O)N[C@H]2C(=O)N[C@H]3C(=O)N[C@H](C(=O)N[C@H](C(=O)O)c4cc(O)cc(O)c4-c4cc3ccc4O)[C@H](O)c3ccc(c(Cl)c3)Oc3cc2cc(c3O[C@@H]2O[C@H](CO)[C@@H](O)[C@H](O)[C@H]2O[C@H]2C[C@](C)(N)[C@H](O)[C@H](C)O2)Oc2ccc(cc2Cl)[C@H]1O [vancomycin]
MIC ([1]; read-out: MIC of vancomycin, M145 ΔvanX, 0 μM D-Ala): 32 µg/mL | MIC ([1]; read-out: MIC of vancomycin, M145 ΔvanX, 10 μM D-Ala): 16 µg/mL | MIC ([1]; read-out: MIC of vancomycin, M145 ΔvanX, 50 μM D-Ala): 1 µg/mL | MIC ([1]; read-out: MIC of vancomycin, M145 ΔvanX, 50 μg/ml D-Ala): 1 µg/mL | MIC ([1]; read-out: MIC of vancomycin, M145 ΔvanX, 100 μM D-Ala): 1 µg/mL | MIC ([2]; read-out: MIC of vancomycin, LAG2 ΔvanX, 0 μM D-Ala): 64 µg/mL | MIC ([2]; read-out: MIC of vancomycin, LAG2 ΔvanX, 10 μM D-Ala): 32 µg/mL | MIC ([2]; read-out: MIC of vancomycin, LAG2 ΔvanX, 50 μM D-Ala): 8 µg/mL | MIC ([2]; read-out: MIC of vancomycin, LAG2 ΔvanX, 100 μM D-Ala): 2 µg/mL | precursors containing the terminal D-Ala-D-Lac dipeptide [3]: 95.7% | precursors of the vancomycin-insensitive variant (D-Ala-D-Lac) (S. coelicolor M145): 91.5% | precursors terminated with D-Ala-D-Lac (S. coelicolor LAG2; LAG2 grown with vancomycin): 99.8% | wild-type (vancomycin-sensitive) peptidoglycan (S. coelicolor LAG2; LAG2 with vancomycin (FIG. 3B)): less than 1%

Reference: patent publication US20190000789A1, “COMPOSITION AND METHOD FOR TREATING INFECTIONS CAUSED BY VANCOMYCIN-RESISTANT INFECTIOUS AGENTS IN A SUBJECT” (priority 2015, published 2019)
